Results from US20110269812A1, “NOVEL BENZYLIDENE-INDOLINONE AND THEIR MEDICAL AND DIAGNOSTIC USES” (Agency for Science, Technology and Research, priority 2008, published 2011).
Like-named read-outs stand apart in the source and are kept apart here.

Key:
CYP1A1 = assay: 7-ethoxyresorufin O-deethylase (EROD) assay, CYP1A1 induction in Hepa1c1c7 cells; assay type: cell-based, murine
Protocol: Hepa1c1c7 cells were plated at a density of 10000 cells per well in a 96-well plate and cultured for 24 h. A stock solution of test compound was prepared in DMSO and serially diluted with medium to give the desired concentration in the well. The final concentration of DMSO was 0.5% v/v. The cells were incubated with test compound for 48 h, after which the medium was removed, the well washed with 200 μl of 1×phosphate-buffered saline solution (PBS) and then incubated with 5 μM 7-ethoxyresorufin and 2 mM salicylamide in 200 μl of medium at 37° C., 40 min. Readings were taken at λexcitation of 530 nm and λemission of 590 nm on a fluorometer. Fluorescence (if any) of the test compound was determined at the same wavelengths to take into account its contribution to the observed readings. Readings of empty wells (no cells, “blank”) and wells with Hepa1c1c7 cells in medium containing 0.5% DMSO but without test compound (“control”) were also determined. TCDD, a strong inducer of CYP1A1 activity, as well as BNF and sulforaphane were used as controls.
CYP1A1 induction activity was given by the expression:
Degree of induction=FCells+test compound−FBlank/FControl−FBlank
The EROD assay was used for this purpose (Burke, M. D.; Mayer, R. T., Drug Metab Dispos 1974, 2, 583). EROD activity describes the rate at which CYP1A1 caused the O-deethylation of 7-ethoxyresorufin to resorufm. […] This ratio was determined for compounds at concentrations that were approximately 4 times their CD values. A fixed concentration was not used here because it would be difficult to select this concentration in view of the large variation in NQO1 induction activities. The quotient of NQO1 and CYP1A1 induction ratios (ratio determined at the same concentration) was also obtained for each compound. Values >1 would imply greater induction of NQO1 relative to CYP1A1.

NQO1 = assay: Induction of NQO1 (QR) activity in Hepa1c1c7 cells
Hepa1c1c7 cells = assay: MTT growth inhibition / cytotoxicity on Hepa1c1c7 cells; assay type: cell-based, murine; details: Mus musculus, Hepa-1c1c7, 48 h, highest concentration tested 25 μM
Protocol: The antiproliferative activity of the compounds according to the invention was determined by the MTT assay on the following cell lines: MCF7 (human breast cancer cell line), HCT116 (human colon cancer cell line), and CCL186 (normal human diploid embryonic lung fibroblast). […] MCF7 and CCL186 cells were cultured in Eagle's Minimum Essential Medium (EMEM) with 1 mM sodium pyruvate, 1.5 g/L sodium bicarbonate, 2 mM L-glutamine supplemented with 10% FBS and 0.01% antibiotics. HCT116 cells were cultured in McCoy's 5A Medium with 2.2 g/L sodium bicarbonate supplemented with […] and 0.01% antibiotics. Cells were plated at the following densities: 10000 cells/well (MCF7), 4000 cells/well (HCT116), 5000 cells/well (CCL186). They were grown for 24 h in a 96-well plate, with 100 μl of corresponding medium in each well. The test compounds were prepared in DMSO and diluted to a series of concentrations with medium. Not more than 1% DMSO (final concentration) was present in each well. The test compounds were incubated with the cells for 72 h, after which 100 μl MTT solution (0.5 mg/ml in 1× PBS) was added for 3 h and the cells lysed to release the formazan product. The latter was dissolved in DMSO (150 μl) and absorbance determined within 30 min at 590 nm on a microtitre plate reader. Cell survival was given by the expression:
Cell survival (%)=[(Acells+test compound−Ablank)/(Auntreated cells−Ablank)]×100
where A is the absorbance of formazan measured at 590 nm in the test (Acells+test compound), control (Auntreated cells) or blank (Ablank) wells. Each concentration of test compound was evaluated on 3 separate occasions. […] The MTT assay was also carried out on Hepa1c1c7 cells for the purpose of determining cytotoxicity of test compounds. The same procedure was adopted except that the incubation period of compound with cells was 48 h, instead of 72 h.

THLE2 = assay: Cell viability assay (Cell Titer-Glo), THLE2 normal hepatocyte cell line; assay type: cell-based; details: Homo sapiens, read-out: IC50 THLE2
Protocol: (§1) Cells were plated at 5000-7000 cells/per well and incubated for 24 h before treatment. […] Cell Titer-Glo (Promega, Madison, Wis.) assay was performed according to manufacturer's instruction with luminescence detected on SpectraMax M5 (Molecular Devices, Sunnyvale, Calif.). Data was expressed as percentage of viability vs. vehicle-treated controls.
(§2) The anti-cancer potential of these compounds against HCC were tested using a phenotypic assay where compounds were screened over 100-fold concentration range (0.1 to 10 μM) using two representative liver cancer cell lines, HepG2 and HuH7. Additionally, THLE2 was employed as normal hepatocyte cell line to differentiate anti-cancer potential from non-specific cytotoxicities.
(§3) Cell viability assay shown in FIG. 2 was analyzed by Prism5 for the determination of respective IC50 values.

HuH7 = assay: cells; assay type: cell-based, human; details: for IC50 / viability at 10 µM: Homo sapiens; for IC50: read-out: IC50 HuH7; for viability at 10 µM: vs vehicle-treated controls, read-out: Percentage viability HuH7; for SR(HuH7/THLE2) safety ratio: percentage viability at 10 μM normalized with THLE2
Protocol: as §1, §2, §3
(§4) Cell viability was determined as described previous in Table 7. Percentage viability at 10 μM treatments was determined and safety ratios were calculated by normalizing survival in HCC cell lines to THLE2.

HepG2 = assay: cells; assay type: cell-based, human; details: for IC50 / viability at 10 µM: Homo sapiens; for IC50: read-out: IC50 HepG2; for viability at 10 µM: vs vehicle-treated controls, read-out: Percentage viability HepG2; for SR(HepG2/THLE2) safety ratio: percentage viability at 10 μM normalized with THLE2
Protocol: as §1, §2, §3, §4

[1] = 1 μM, read off from plot of degree of induction versus concentration

Structure (SMILES)	CYP1A1 induction ratio (CYP1A1; 1 μM, 48 h)	melting point	IC50 (Hepa1c1c7 cells)	NQO1 induction ratio (NQO1; [1])	IC50 (THLE2; THLE-2, 72 h)	IC50 (HuH7; Huh-7, 72 h)	viability at 10 µM (HuH7; Huh-7, 72 h)	SR(HuH7/THLE2) safety ratio (HuH7)	IC50 (HepG2; HepG2, 72 h)	viability at 10 µM (HepG2; HepG2, 72 h)	SR(HepG2/THLE2) safety ratio (HepG2)	other results
O=c1cc(-c2ccccc2)oc2ccc3ccccc3c12 [BNF, β-naphthoflavone, reference compound]												CYP1A1 induction ratio (CYP1A1; 0.01 μM, read off from a curve): 1.13; NQO1 induction ratio (NQO1; 0.01 μM): 1.83; NQO1/CYP1A1 Quotient (NQO1; both ratios at 0.01 μM): 1.62
COc1cccc(/C=C2/C(=O)Nc3cc(F)ccc32)c1 [Compound 39, (E)-6-Fluoro-3-(3-methoxybenzylidene)indolin-2-one]	1.25 ± 0.06	169 to 170 °C	9.8 µM	3.21	> 10 µM	> 10 µM	65.8 ± 1.1%	1.19	7.6 µM	40 ± 4.2%	1.95	NQO1/CYP1A1 Quotient (NQO1; both ratios at 1 μM): 2.57
COc1cccc(/C=C2/C(=O)Nc3ccc(Cl)cc32)c1 [Compound 40, (E)-5-Chloro-3-(3-methoxybenzylidene)indolin-2-one]		212 to 214 °C	17.5 µM		> 10 µM	> 10 µM	57.5 ± 6.6%	1.55	9.2 µM	46.1 ± 2.2%	1.93	CYP1A1 induction ratio (CYP1A1; 2.5 μM, 48 h): 1.32 ± 0.08; NQO1 induction ratio (NQO1; 2.5 μM, read off from plot): 4.34; NQO1/CYP1A1 Quotient (NQO1; both ratios at 2.5 μM): 3.29
COc1cccc(/C=C2/C(=O)Nc3cc(Cl)ccc32)c1 [Compound 41, (E)-6-Chloro-3-(3-methoxybenzylidene)indolin-2-one]		198 to 200 °C	> 25 µM		> 10 µM	> 10 µM	102 ± 6.9%	0.87	8.5 µM	46.4 ± 2.5%	1.90	CYP1A1 induction ratio (CYP1A1; 0.1 μM, 48 h): 1.51 ± 0.13; NQO1 induction ratio (NQO1; 0.1 μM, read off from plot): 2.56; NQO1/CYP1A1 Quotient (NQO1; both ratios at 0.1 μM): 1.70
COc1ccc(/C=C2/C(=O)Nc3cc(F)ccc32)cc1O [Compound 43, (E)-6-Fluoro-3-(3-hydroxy-4-methoxybenzylidene)indolin-2-one]		225 to 227 °C	15.6 µM		> 10 µM	> 10 µM	84.1 ± 7.5%	1.22	1.2 µM	28.3 ± 6.7%	3.63	CYP1A1 induction ratio (CYP1A1; 0.5 μM, 48 h): 2.05 ± 0.07; NQO1 induction ratio (NQO1; 0.5 μM, read off from plot): 4.10; NQO1/CYP1A1 Quotient (NQO1; both ratios at 0.5 μM): 2.00
COc1ccc(/C=C2/C(=O)Nc3cc(Cl)ccc32)cc1O [Compound 44, (E)-6-Chloro-3-(3-hydroxy-4-methoxybenzylidene)indolin-2-one]	2.33 ± 0.13	220 to 223 °C	> 25 µM	5.09	> 10 µM	> 10 µM	63 ± 4%	1.36	1 µM	15 ± 1.3%	5.72	NQO1/CYP1A1 Quotient (NQO1; both ratios at 1 μM): 2.18
CCN(CC)CCNC(=O)c1c(C)[nH]c(/C=C2\C(=O)Nc3ccc(F)cc32)c1C [Sunitinib, reference compound]							3.4 ± 0.2%			1.8 ± 0.3%		IC50 (THLE2; THLE-2, viability (intracellular ATP, Cell Titer-Glo), 72 h, 0.1 to 10 μM, normal liver cell line): 4.5 µM; IC50 (HuH7; Huh-7, viability (intracellular ATP, Cell Titer-Glo), 72 h, 0.1 to 10 μM): 4.7 µM; IC50 (HepG2; HepG2, viability (intracellular ATP, Cell Titer-Glo), 72 h, 0.1 to 10 μM): 4.5 µM
Clc1cc2c(cc1Cl)Oc1cc(Cl)c(Cl)cc1O2 [TCDD, 2,3,7,8-Tetrachlorodibenzo-p-dioxin, reference compound]												CYP1A1 induction ratio (EROD assay) (CYP1A1; 1 nM): 2.99
C[S+]([O-])CCCCN=C=S (centres unmarked) [sulforaphane, reference compound]	0.924			3.89								
